Source: US9783510B2, “Small molecule mediated transcriptional induction of E-cadherin” (Vanderbilt University, priority 2014, dated 2017)

test system: E-cadherin expression in SW620 cells; test: E-cadherin expression, in-cell Western (ICW), SW620 cells; format: cell-based; settings: Homo sapiens, SW-620, 24 h, change in expression level of E-cadherin in response to 10 μM compound, 24 hours, SW620 cells
Description: SW620 and H520 cells (5×10^4/100 μL) were seeded in a 96-well plate prior to treatment. Cells were treated with 10 μM concentration of synthesized compound in quadruplicate for 24 hours in RPMI 1640 supplemented medium and 100 μg/mL penicillin-streptomycin. The cells were then fixed with 100% methanol for 20 minutes at 4° C. The wells were then washed 2 times with PBS, permeabilized in 2% bovine serum albumin (BSA) and 0.2% TritonX-100 in PBS for 30 minutes at room temperature with gentle agitation, and blocked in LI-COR blocking buffer for 30 minutes at room temperature with gentle agitation. The cells were then incubated with the following primary antibodies: anti-E-Cadherin (1:500) and anti-α-Tubulin (1:1000) diluted in blocking buffer (1:1 dilution in PBS) for 2 hours at room temperature with gentle agitation. The cells were washed 4 times in PBS-T for 5 minutes each, and then incubated with the following secondary antibodies conjugated to a fluorescent entity: IRDye 800-conjugated goat anti-rabbit IgG (1:1000) and IRDye-700-conjugated goat anti-mouse IgG (1:2000) in blocking buffer (1:1 dilution in PBS) with gentle agitation for 1 h at room temperature. The cells were washed 4 times in PBS-T for 5 minutes each followed by a single wash with PBS. All liquid was removed from the wells and the plates were visualized and analyzed on the Odyssey IR imaging system (LI-COR Biosciences).
The assay was further optimized in the following manner. The cells were washed 2 times with PBS, fixed in 100% methanol at room temperature for 15 minutes, and again washed 2 times with PBS. The cells were then incubated with the following primary antibodies: anti-E-Cadherin (1:200) and anti-α-Tubulin (1:2000) diluted in ice cold 2% bovine serum albumin (BSA) and 0.2% TritonX-100 in PBS for 1 hour at room temperature with gentle agitation. The cells were washed 2 times in PBS and then incubated with the following secondary antibodies conjugated to a fluorescent entity: Licor 800-conjugated goat anti-rabbit IgG (1:2000) and IRDye-700-conjugated goat anti-mouse IgG (1:2000) in ice cold 2% BSA and 0.2% TritonX-100 in PBS with gentle agitation for 45 minutes at room temperature. The wells were washed 2 times in PBS, dried, and analyzed as previously mentioned.
N-Acetamidoalkyl-5-arylisoxazole-3-carboxamide analogs were synthesized as described above. Changes in expression level of E-cadherin in response to 10 μM compound in SW620 cells was determined in a cell-based functional assay as described above, and the data are shown in Table III. The compound number corresponds to the compound numbers used in Table II.
EC50 of inducement of E-cadherin expression in SW620 cells was determined in a cell-based functional assay as described above, and the data are shown in Table V. The compound number corresponds to the compound numbers used in Table IV.

**Q.** For `CC(C)(C)c1ccc(C(=O)NCCCNC(=O)c2cc(-c3cccs3)on2)o1` [Compound 98, N-(3-(5-(tert-butyl)furan-2-carboxamido)propyl)-5-(thiophen-2-yl)isoxazole-3-carboxamide], which fold induction at 10 µM is on record?
**A.** 3.65

**Q.** Which fold induction at 10 µM does the source give for `O=C(NCCCNC(=O)c1cccs1)c1cc(-c2cccs2)on1` [Compound 75, 5-(thiophen-2-yl)-N-(3-(thiophene-2-carboxamido)propyl)isoxazole-3-carboxamide] here?
**A.** 3.05

**Q.** For `O=C(NCCCNC(=O)c1cccc(Br)n1)c1cc(-c2ccccc2)on1` [Compound 62, N-(3-(6-bromopicolinamido)propyl)-5-phenylisoxazole-3-carboxamide], which fold induction at 10 µM is on record?
**A.** 2.59

**Q.** `CC(C)(C)c1ccc(C(=O)NCCCNC(=O)c2cc(-c3ccccc3)on2)o1` [Compound 112, N-(3-(5-(tert-butyl)furan-2-carboxamido)propyl)-5-phenylisoxazole-3-carboxamide] was tested. Which fold induction at 10 µM did it give?
**A.** 3.86

**Q.** With `O=C(NCCCNC(=O)c1cc2ccccc2o1)c1cc(-c2cccs2)on1` [Compound 85, N-(3-(benzofuran-2-carboxamido)propyl)-5-(thiophen-2-yl)isoxazole-3-carboxamide] as the compound, how does the fold induction at 10 µM read?
**A.** 3.26

**Q.** `Cc1ccc(C(=O)NCCCNC(=O)c2cc(-c3cccs3)on2)o1` [Compound 77, N-(3-(5-methylfuran-2-carboxamido)propyl)-5-(thiophen-2-yl)isoxazole-3-carboxamide] was tested. Which fold induction at 10 µM did it give?
**A.** 2.99

**Q.** `Cc1cccnc1C(=O)NCCCNC(=O)c1cc(-c2ccccc2)on1` [Compound 71, N-(3-(3-methylpicolinamido)propyl)-5-phenylisoxazole-3-carboxamide] was tested. Which fold induction at 10 µM did it give?
**A.** 3.61

**Q.** Which fold induction at 10 µM does the source give for `O=C(NCCCNC(=O)c1occc1-c1ccccc1)c1cc(-c2cccs2)on1` [Compound 100, N-(3-(3-phenylfuran-2-carboxamido)propyl)-5-(thiophen-2-yl)isoxazole-3-carboxamide] here?
**A.** 2.37

**Q.** How did the fold induction at 10 µM turn out when `O=C(NCCCNC(=O)c1cc(-c2cccs2)on1)c1cc(Cl)ccn1` [Compound 40, N-(3-(4-chloropicolinamido)propyl)-5-(thiophen-2-yl)isoxazole-3-carboxamide] was run?
**A.** 1.95

**Q.** For `Nc1cncc(C(=O)NCCCNC(=O)c2cc(-c3ccccc3)on2)n1` [Compound 118, N-(3-(6-aminopyrazine-2-carboxamido)propyl)-5-phenylisoxazole-3-carboxamide], which fold induction at 10 µM is on record?
**A.** 4.38

**Q.** `O=C(NCCCNC(=O)c1ccc(Br)o1)c1cc(-c2cccs2)on1` [Compound 74, N-(3-(5-bromofuran-2-carboxamido)propyl)-5-(thiophen-2-yl)isoxazole-3-carboxamide] was tested. Which fold induction at 10 µM did it give?
**A.** 3.06

**Q.** `N[C@@H](Cc1c[nH]c2ccccc12)C(=O)NCCCNC(=O)c1cc(-c2ccccc2)on1` [Compound 32, (S)—N-(3-(2-amino-3-(1H-indol-3-yl)propanamido)propyl)-5-phenylisoxazole-3-carboxamide] was tested. Which fold induction at 10 µM did it give?
**A.** 2.7

**Q.** `O=C(NCCCNC(=O)c1ccc(C(F)(F)F)o1)c1cc(-c2ccccc2)on1` [Compound 89, 5-phenyl-N-(3-(5-(trifluoromethyl)furan-2-carboxamido)propyl)isoxazole-3-carboxamide] was tested. Which fold induction at 10 µM did it give?
**A.** 2.13

**Q.** Which fold induction at 10 µM does the source give for `O=C(NCCCNC(=O)c1ncccc1F)c1cc(-c2cccs2)on1` [Compound 44, N-(3-(3-fluoropicolinamido)propyl)-5-(thiophen-2-yl)isoxazole-3-carboxamide] here?
**A.** 3.36

**Q.** How did the fold induction at 10 µM turn out when `O=C(NCCCNC(=O)c1cc(-c2ccccc2)on1)c1cc(-c2ccccc2)ccn1` [Compound 119, 5-phenyl-N-(3-(4-phenylpicolinamido)propyl)isoxazole-3-carboxamide] was run?
**A.** 4.13

**Q.** For `O=C(NCCCNC(=O)c1cc(Br)cnc1O)c1cc(-c2ccccc2)on1` [Compound 68, N-(3-(5-bromo-2-hydroxynicotinamido)propyl)-5-phenylisoxazole-3-carboxamide], which fold induction at 10 µM is on record?
**A.** 1.61

**Q.** How did the fold induction at 10 µM turn out when `COc1ncccc1C(=O)NCCCNC(=O)c1cc(-c2ccccc2)on1` [Compound 70, N-(3-(2-methoxynicotinamido)propyl)-5-phenylisoxazole-3-carboxamide] was run?
**A.** 2.62

**Q.** For `Nc1ccc(C(=O)NCCCNC(=O)c2cc(-c3cccs3)on2)cn1` [Compound 79, N-(3-(6-aminonicotinamido)propyl)-5-(thiophen-2-yl)isoxazole-3-carboxamide], which fold induction at 10 µM is on record?
**A.** 3.58

**Q.** Which fold induction at 10 µM does the source give for `O=C(NCCNC(=O)c1cc(-c2ccccc2)on1)c1cccnc1` [Compound 3, N-(2-(nicotinamido)ethyl)-5-phenylisoxazole-3-carboxamide] here?
**A.** 3.05

**Q.** `O=C(NCCNC(=O)c1cc(-c2ccccc2)on1)c1ccc(O)c(O)c1` [Compound 9, N-(2-(3,4-dihydroxybenzamido)ethyl)-5-phenylisoxazole-3-carboxamide] was tested. Which fold induction at 10 µM did it give?
**A.** 1.89

**Q.** With `O=C(NCCCNC(=O)c1ncco1)c1cc(-c2ccccc2)on1` [Compound 34, N-(3-(oxazole-2-carboxamido)propyl)-5-phenylisoxazole-3-carboxamide] as the compound, how does the fold induction at 10 µM read?
**A.** 2.77

**Q.** How did the fold induction at 10 µM turn out when `Cc1nc(C(=O)NCCCNC(=O)c2cc(-c3ccccc3)on2)no1` [Compound 91, 5-methyl-N-(3-(5-phenylisoxazole-3-carboxamido)propyl)-1,2,4-oxadiazole-3-carboxamide] was run?
**A.** 3.47

**Q.** `N[C@@H](Cc1ccccc1)C(=O)NCCNC(=O)c1cc(-c2ccccc2)on1` [Compound 23, (S)—N-(2-(2-amino-3-phenylpropanamido)ethyl)-5-phenylisoxazole-3-carboxamide] was tested. Which fold induction at 10 µM did it give?
**A.** 0.84

**Q.** With `N#Cc1ccnc(C(=O)NCCCNC(=O)c2cc(-c3ccccc3)on2)c1` [Compound 93, N-(3-(4-cyanopicolinamido)propyl)-5-phenylisoxazole-3-carboxamide] as the compound, how does the fold induction at 10 µM read?
**A.** 2.88

**Q.** Which fold induction at 10 µM does the source give for `Cc1ncccc1C(=O)NCCCNC(=O)c1cc(-c2ccccc2)on1` [Compound 65, N-(3-(2-methylnicotinamido)propyl)-5-phenylisoxazole-3-carboxamide] here?
**A.** 2.05

**Q.** `O=C(NCCCNC(=O)c1cc(-c2cccs2)on1)c1cccnc1` [Compound 39, N-(3-(nicotinamido)propyl)-5-(thiophen-2-yl)isoxazole-3-carboxamide] was tested. Which fold induction at 10 µM did it give?
**A.** 4.56

**Q.** `CCOc1ncccc1C(=O)NCCCNC(=O)c1cc(-c2cccs2)on1` [Compound 53, N-(3-(2-ethoxynicotinamido)propyl)-5-(thiophen-2-yl)isoxazole-3-carboxamide] was tested. Which fold induction at 10 µM did it give?
**A.** 3.52

**Q.** How did the fold induction at 10 µM turn out when `Cn1cnc(C(=O)NCCCNC(=O)c2cc(-c3ccccc3)on2)c1` [Compound 116, N-(3-(1-methyl-1H-imidazole-4-carboxamido)propyl)-5-phenylisoxazole-3-carboxamide] was run?
**A.** 2.6

**Q.** For `O=C(NCCCNC(=O)c1cc(-c2ccccc2)on1)c1ccc(O)cn1` [Compound 58, N-(3-(5-hydroxypicolinamido)propyl)-5-phenylisoxazole-3-carboxamide], which fold induction at 10 µM is on record?
**A.** 3.57

**Q.** Which fold induction at 10 µM does the source give for `Cc1ncccc1C(=O)NCCCNC(=O)c1cc(-c2cccs2)on1` [Compound 47, N-(3-(2-methylnicotinamido)propyl)-5-(thiophen-2-yl)isoxazole-3-carboxamide] here?
**A.** 2.72

**Q.** How did the fold induction at 10 µM turn out when `Cc1noc(C(=O)NCCCNC(=O)c2cc(-c3cccs3)on2)n1` [Compound 78, 3-methyl-N-(3-(5-(thiophen-2-yl)isoxazole-3-carboxamido)propyl)-1,2,4-oxadiazole-5-carboxamide] was run?
**A.** 1.97

same assay, conditions: Homo sapiens, SW-620; inducement of E-cadherin expression in SW620 cells

**Q.** With `Nc1cncc(C(=O)NCCCNC(=O)c2cc(-c3ccccc3)on2)n1` [Compound 118, N-(3-(6-aminopyrazine-2-carboxamido)propyl)-5-phenylisoxazole-3-carboxamide] as the compound, how does the EC50 read?
**A.** 5.45 µM

**Q.** For `O=C(NCCCNC(=O)c1cc(-c2ccccc2)on1)c1cc(-c2ccccc2)ccn1` [Compound 119, 5-phenyl-N-(3-(4-phenylpicolinamido)propyl)isoxazole-3-carboxamide], which EC50 is on record?
**A.** 5.64 µM

**Q.** How did the EC50 turn out when `O=C(NCCNC(=O)c1cc(-c2ccccc2)on1)c1cccnc1` [Compound 3, N-(2-(nicotinamido)ethyl)-5-phenylisoxazole-3-carboxamide] was run?
**A.** 7.1 µM

**Q.** How did the EC50 turn out when `O=C(NCCCNC(=O)c1cc(-c2cccs2)on1)c1cccnc1` [Compound 39, N-(3-(nicotinamido)propyl)-5-(thiophen-2-yl)isoxazole-3-carboxamide] was run?
**A.** 5.02 µM
